Measurements reported in US20220396819A1, “METHOD FOR PRODUCING PEPTIDE HAVING PHYSIOLOGICAL ACTIVITY, AND PEPTIDE COMPRISING SHORT LINKER” (priority 2019, published 2022).
Positions of bridges follow the written chain, without caps; N, C: chain ends. No end group written: not given here.

Experiments:
Format in all cases: cell-based
Met = molecular target: T1, Met (Homo sapiens, UniProt P08581); test: Met activation ability, SRE luciferase assay in HEK293E cells (HGF-Erk-SRE pathway); conditions: for signal activation ability, dimer versus monomer: Example 43, FIG. 76
T1 construct: endogenous in cells; host or cells: HEK293E
Method: (§1) The Met activation ability of the HGF-PAS dimer peptide was evaluated by luciferase assay. To 25 μL of Opti-MEM medium (Thermo Fisher Scientific), 0.6 μL of Attractene Transfection Reagent (QIAGEN) was added, and the mixture was incubated at room temperature for 5 minutes. To the above mixed solution, a mixed solution of 25 μL of Opti-MEM and 1 μL of SRE reporter vector (QIAGEN) was added, and the mixture was incubated at room temperature for 20 minutes. This mixed solution was added to a 96-well plate, over which 40,000 cell/well HEK293E cells were seeded and incubated overnight in a 5% CO2 incubator at 37° C. After transfection, all culture supernatant was removed, 100 μL of Opti-MEM medium (evaluation basal medium) containing 0.5% FBS (Thermo Fisher Scientific), 1% non-essential amino acid solution (Thermo Fisher Scientific), and penicillin-streptomycin (Nacalai Tesque) was added, and incubation was performed at 37° C. for 4 hours, and thereby the cells were starved.
To the evaluation basal medium, 0 to 200 ng/mL HGF was added, or 0 to 800 ng/mL AET-PAS-aMD4dY-PEG11, AET-PAS-aMD4-PEG11, or AET-PAS-aMD4-PEG3 was added, or a culture supernatant containing PAS-aMD4dY-PEG11, PAS-aMD4-PEG11, or PAS-aMD4-PEG3 was added so as to be diluted 10-fold with respect to the medium, and the evaluation basal medium was added in an amount of 100 μL to the cells. The cells were stimulated by culturing overnight in a 5% CO2 incubator at 37° C.
The signal intensities were detected using Dual-Luciferase Reporter Assay System (Promega). The medium supernatant in an amount of 100 μL was removed, 50 μL of Glo reagent was added, and the cells were lysed for 10 minutes at room temperature. The luminescence of Firefly luciferase emitted from the cell lysate solution was detected with a plate reader to quantify the activation of the HGF-Erk-SRE pathway. Subsequently, 50 μL of Glo & Stop reagent solution was added, and after 10 minutes, the luminescence of the internal standard Renilla luciferase was detected to quantify the number of cells. The signal activity of each sample was quantified as SRE activity=(Firefly luciferase luminescence intensity)/(Renilla luciferase luminescence intensity). The relative signal activity values for the samples without addition of the evaluation compound were determined and used as relative receptor activity.
as §1, with “peptide linker variant” for “peptide”, “0.6 L” for “0.6 μL”
To the evaluation basal medium, 0 to 100 ng/mL HGF was added, or a culture supernatant containing AET-aMD4dY-PAS8, AET-aMD4dY-PAS22 (the same molecule as AET-PAS-aMD4dY-PEG11), AET-aMD4dY-PAS49, AET-aMD4dY-PAS100, AET-aMD4dY-PAS200, AET-aMD4dY-GS15, or AET-aMD4dY-GS22 was added to the medium so as to be diluted at a predetermined ratio, and the evaluation basal medium was added in an amount of 100 μL to the cells. The cells were stimulated by culturing overnight in a 5% CO2 incubator at 37° C.
The Met activation ability of the stabilized HGF-PAS dimer peptide was evaluated by luciferase assay. […]

HuCCT1 cells [1] = test: Cell proliferation promoting activity in HuCCT1 cell culture; conditions: HGF 35 ng/mL or peptide 40 ng/mL, 5 days, N=3, FIG. 12
Method: HGF has been reported to promote cell proliferation by activating Met (K. Ito, et al. Nat. Commun. 6, 6373, 2015). Therefore, HuCCT1 cell culture was used to evaluate whether the HGF-PAS dimer peptide had the same activity of promoting cell proliferation as HGF.
RPMI 1640 medium (Nacalai Tesque) containing 5% FBS was added to a 24-well cell culture plate, and HuCCT1 cells were seeded at 5,000 cell/well. HGF at 35 ng/mL or AET-PAS-aMD4dY-PEG11 at 40 ng/mL was added, and the cells were cultured at 37° C. and 5% CO2 for 5 days. The cells were detached with 0.25% Trypsin/EDTA (Thermo Fisher Scientific) and the number of cells was quantified with Countess Automated Cell Counter (Thermo Fisher Scientific) (N=3).

HuCCT1 cells [2] = test: Wound healing effect, scratch in HuCCT1 cell culture; conditions: 33 ng/mL HGF or 100 ng/mL peptide, N=4, FIG. 16
Method: HGF has been reported to promote cell wound healing ability by activating Met (K. Ito, et al. Nat. Commun. 6, 6373, 2015). Therefore, HuCCT1 cell culture was used to evaluate whether the HGF-PAS dimer peptide would promote wound healing as HGF.
To 96-well cell culture plates, 50,000 HuCCT1 cells suspended in RPMI 1640 medium with 10% FBS were added per well and incubated overnight under the conditions of 37° C. and 5% CO2. Cells in the center of the culture wells were scraped using a 1000 μL Thermo Scientific ART chip (Thermo Fisher Scientific) and washed with low serum medium (RPMI 1640 medium with 0.5% FBS). Low serum medium containing 33 ng/mL HGF or 100 ng/mL AET-PAS-aMD4dY-PEG11 was added, and the cells were cultured under the conditions of 37° C. and 5% CO2. BioStudio-T (Nikon Corporation) was used for cell observation, and cells were automatically photographed every hour. The rate of wound healing (μm/h) was calculated as ((wound width 1 hour after wound creation)−(wound width 7 hours after wound creation))/6 (N=4).

T1 sequence (P08581 25-1390): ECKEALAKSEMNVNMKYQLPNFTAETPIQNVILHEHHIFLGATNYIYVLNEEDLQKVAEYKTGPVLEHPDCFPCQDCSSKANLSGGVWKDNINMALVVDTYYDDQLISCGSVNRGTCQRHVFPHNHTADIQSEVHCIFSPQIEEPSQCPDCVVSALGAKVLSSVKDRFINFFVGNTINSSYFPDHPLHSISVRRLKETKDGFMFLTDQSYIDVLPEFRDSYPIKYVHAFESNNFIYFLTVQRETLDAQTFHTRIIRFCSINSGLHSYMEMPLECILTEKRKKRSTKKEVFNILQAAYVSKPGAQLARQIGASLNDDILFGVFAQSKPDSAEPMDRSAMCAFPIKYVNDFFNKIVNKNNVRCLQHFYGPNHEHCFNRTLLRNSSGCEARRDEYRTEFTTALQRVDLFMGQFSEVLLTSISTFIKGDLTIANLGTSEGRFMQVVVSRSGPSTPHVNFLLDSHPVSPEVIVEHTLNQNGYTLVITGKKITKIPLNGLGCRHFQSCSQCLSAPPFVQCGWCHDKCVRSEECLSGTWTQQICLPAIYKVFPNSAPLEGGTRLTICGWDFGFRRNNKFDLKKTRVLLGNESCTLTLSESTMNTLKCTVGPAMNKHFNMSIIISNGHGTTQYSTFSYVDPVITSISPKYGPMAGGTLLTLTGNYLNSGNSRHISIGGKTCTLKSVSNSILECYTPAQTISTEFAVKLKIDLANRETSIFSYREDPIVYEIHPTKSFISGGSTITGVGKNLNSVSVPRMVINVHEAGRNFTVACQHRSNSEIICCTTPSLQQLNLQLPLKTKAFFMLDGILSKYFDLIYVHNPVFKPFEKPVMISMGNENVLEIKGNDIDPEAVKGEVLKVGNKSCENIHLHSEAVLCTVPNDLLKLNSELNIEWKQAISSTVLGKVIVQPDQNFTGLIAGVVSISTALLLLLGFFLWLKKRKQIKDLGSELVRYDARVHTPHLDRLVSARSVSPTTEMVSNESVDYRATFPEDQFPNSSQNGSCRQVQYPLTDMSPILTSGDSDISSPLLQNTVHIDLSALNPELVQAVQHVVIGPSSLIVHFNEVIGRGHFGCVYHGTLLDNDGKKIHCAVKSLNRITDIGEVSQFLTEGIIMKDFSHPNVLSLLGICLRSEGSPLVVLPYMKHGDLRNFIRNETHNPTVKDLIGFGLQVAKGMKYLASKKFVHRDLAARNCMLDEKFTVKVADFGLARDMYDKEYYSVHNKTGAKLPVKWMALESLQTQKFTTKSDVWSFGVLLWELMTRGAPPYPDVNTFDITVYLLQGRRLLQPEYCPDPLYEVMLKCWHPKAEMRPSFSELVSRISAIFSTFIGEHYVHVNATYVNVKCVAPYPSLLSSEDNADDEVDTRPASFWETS

| Substance | signal activation ability, dimer versus monomer (Met) | proliferation ability relative to the non-added group (Mock) (HuCCT1 cells [1]) | improvement of the rate of wound healing (HuCCT1 cells [2]) | maximum activity compared with HGF (Met; Example 6, AET form 0 to 800 ng/mL, PAS form culture supernatant diluted 10-fold) |
| --- | --- | --- | --- | --- |
| HGF: recombinant human HGF (rhHGF, R&D Systems) | showed signal activation ability | about 2.5 times | about 1.6 times |  |
| AETCRQFNRRTHEVWNLDCGAAPAAPAPAAPAAPAPAAPAAPGCRQFNRRTHEVWNLDC (disulfide 4-19, 44-59; also: PEG11) [AET-PAS-aMD4dY-PEG11] | showed signal activation ability | about 2.5 times | about 1.6 times | comparable to 100 ng/mL HGF |
